Test results: PubChem BioAssay (NCI)
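Briefly, cells in 96-well plates were exposed to five compound concentrations for 48 h, and endpoints were estimated by linear interpolation. Definition used: TGI = concentration required for complete inhibition of growth.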

Key:
Experiment in all cases: NCI anticancer screen, dose series, 48 h
DMS 273 small cell lung = tested on: DMS 273 small cell lung
HL-60(TB) leukemia = tested on: HL-60(TB) leukemia
HOP-18 NSCLC = tested on: HOP-18 NSCLC
UACC-257 melanoma = tested on: UACC-257 melanoma
U251 CNS = tested on: U251 CNS
HCT-15 colon = tested on: HCT-15 colon
IGROV1 ovarian = tested on: IGROV1 ovarian
EKVX NSCLC = tested on: EKVX NSCLC
MALME-3M melanoma = tested on: MALME-3M melanoma
K-562 leukemia = tested on: K-562 leukemia
UACC-62 melanoma = tested on: UACC-62 melanoma
SNB-78 CNS = tested on: SNB-78 CNS
DMS 114 small cell lung = tested on: DMS 114 small cell lung
NCI-H460 lung = tested on: NCI-H460 lung
HCT-116 colon = tested on: HCT-116 colon
MOLT-4 leukemia = tested on: MOLT-4 leukemia
DLD-1 colon = tested on: DLD-1 colon
UO-31 renal = tested on: UO-31 renal
M19-MEL melanoma = tested on: M19-MEL melanoma
KM20L2 colon = tested on: KM20L2 colon
LXFL 529 NSCLC = tested on: LXFL 529 NSCLC
M14 melanoma = tested on: M14 melanoma
COLO 205 colon = tested on: COLO 205 colon
OVCAR-8 ovarian = tested on: OVCAR-8 ovarian
SK-MEL-5 melanoma = tested on: SK-MEL-5 melanoma
NCI-H226 lung = tested on: NCI-H226 lung
NCI-H522 lung = tested on: NCI-H522 lung
CCRF-CEM leukemia = tested on: CCRF-CEM leukemia
OVCAR-5 ovarian = tested on: OVCAR-5 ovarian
NCI-H23 lung = tested on: NCI-H23 lung
786-0 renal = tested on: 786-0 renal
SN12C renal = tested on: SN12C renal
A549 NSCLC = tested on: A549 NSCLC
A498 renal = tested on: A498 renal
HCC-2998 colon = tested on: HCC-2998 colon
KM12 colon = tested on: KM12 colon
OVCAR-4 ovarian = tested on: OVCAR-4 ovarian
SK-OV-3 ovarian = tested on: SK-OV-3 ovarian
RPMI-8226 leukemia = tested on: RPMI-8226 leukemia
SF-295 CNS = tested on: SF-295 CNS
SNB-19 CNS = tested on: SNB-19 CNS
SW-620 colon = tested on: SW-620 colon
SF-268 CNS = tested on: SF-268 CNS
HOP-62 NSCLC = tested on: HOP-62 NSCLC
SNB-75 CNS = tested on: SNB-75 CNS
XF 498 CNS = tested on: XF 498 CNS
TK-10 renal = tested on: TK-10 renal
OVCAR-3 ovarian = tested on: OVCAR-3 ovarian
LOX IMVI melanoma = tested on: LOX IMVI melanoma
SR leukemia = tested on: SR leukemia
SF-539 CNS = tested on: SF-539 CNS
HT29 colon = tested on: HT29 colon
RXF 393 renal = tested on: RXF 393 renal
SK-MEL-28 melanoma = tested on: SK-MEL-28 melanoma
ACHN renal = tested on: ACHN renal
HOP-92 NSCLC = tested on: HOP-92 NSCLC
CAKI-1 renal = tested on: CAKI-1 renal
SK-MEL-2 melanoma = tested on: SK-MEL-2 melanoma

SMILES: COc1ccccc1N=Nc1c(-c2ccccc2)nn(C(=O)CC(=O)Nc2ccccc2Cl)c1-c1ccccc1
- TGI (DMS 273 small cell lung): > 100 µM
- TGI (HL-60(TB) leukemia): > 100 µM
- TGI (HOP-18 NSCLC): > 100 µM
- TGI (UACC-257 melanoma): > 100 µM
- TGI (U251 CNS): > 100 µM
- TGI (HCT-15 colon): > 100 µM
- TGI (IGROV1 ovarian): > 100 µM
- TGI (EKVX NSCLC): > 100 µM
- TGI (MALME-3M melanoma): > 100 µM
- TGI (K-562 leukemia): > 100 µM
- TGI (UACC-62 melanoma): > 100 µM
- TGI (SNB-78 CNS): > 100 µM
- TGI (DMS 114 small cell lung): > 100 µM
- TGI (NCI-H460 lung): > 100 µM
- TGI (HCT-116 colon): > 100 µM
- TGI (MOLT-4 leukemia): > 100 µM
- TGI (DLD-1 colon): > 100 µM
- TGI (UO-31 renal): > 100 µM
- TGI (M19-MEL melanoma): > 100 µM
- TGI (KM20L2 colon): > 100 µM
- TGI (LXFL 529 NSCLC): > 100 µM
- TGI (M14 melanoma): > 100 µM
- TGI (COLO 205 colon): > 100 µM
- TGI (OVCAR-8 ovarian): > 100 µM
- TGI (SK-MEL-5 melanoma): > 100 µM
- TGI (NCI-H226 lung): > 100 µM
- TGI (NCI-H522 lung): > 100 µM
- TGI (CCRF-CEM leukemia): > 100 µM
- TGI (OVCAR-5 ovarian): > 100 µM
- TGI (NCI-H23 lung): > 100 µM
- TGI (786-0 renal): > 100 µM
- TGI (SN12C renal): > 100 µM
- TGI (A549 NSCLC): > 100 µM
- TGI (A498 renal): > 100 µM
- TGI (HCC-2998 colon): > 100 µM
- TGI (KM12 colon): > 100 µM
- TGI (OVCAR-4 ovarian): > 100 µM
- TGI (SK-OV-3 ovarian): > 100 µM
- TGI (RPMI-8226 leukemia): > 100 µM
- TGI (SF-295 CNS): > 100 µM
- TGI (SNB-19 CNS): > 100 µM
- TGI (SW-620 colon): > 100 µM
- TGI (SF-268 CNS): > 100 µM
- TGI (HOP-62 NSCLC): > 100 µM
- TGI (SNB-75 CNS): > 100 µM
- TGI (XF 498 CNS): > 100 µM
- TGI (TK-10 renal): > 100 µM
- TGI (OVCAR-3 ovarian): > 100 µM
- TGI (LOX IMVI melanoma): > 100 µM
- TGI (SR leukemia): > 100 µM
- TGI (SF-539 CNS): > 100 µM
- TGI (HT29 colon): > 100 µM
- TGI (RXF 393 renal): > 100 µM
- TGI (SK-MEL-28 melanoma): > 100 µM
- TGI (ACHN renal): > 100 µM

SMILES: COc1ccc(C23c4ccc(OC)cc4CC2(c2ccc([N+](=O)[O-])cc2)Cc2cc(OC)ccc23)cc1 (stereo unspecified)
- TGI (DMS 273 small cell lung): > 100 µM
- TGI (HL-60(TB) leukemia): > 100 µM
- TGI (HOP-18 NSCLC): 30.8 µM
- TGI (UACC-257 melanoma): > 100 µM
- TGI (U251 CNS): > 100 µM
- TGI (HCT-15 colon): > 100 µM
- TGI (IGROV1 ovarian): > 81.6 µM
- TGI (EKVX NSCLC): > 37.9 µM
- TGI (MALME-3M melanoma): > 68.4 µM
- TGI (K-562 leukemia): > 100 µM
- TGI (UACC-62 melanoma): > 41.7 µM
- TGI (SNB-78 CNS): > 100 µM
- TGI (DMS 114 small cell lung): > 100 µM
- TGI (NCI-H460 lung): > 100 µM
- TGI (HCT-116 colon): > 100 µM
- TGI (MOLT-4 leukemia): > 69.2 µM
- TGI (DLD-1 colon): > 100 µM
- TGI (UO-31 renal): > 77.4 µM
- TGI (M19-MEL melanoma): > 88.2 µM
- TGI (KM20L2 colon): > 44.9 µM
- TGI (LXFL 529 NSCLC): > 100 µM
- TGI (M14 melanoma): > 100 µM
- TGI (COLO 205 colon): > 52.1 µM
- TGI (OVCAR-8 ovarian): > 100 µM
- TGI (SK-MEL-5 melanoma): > 40.2 µM
- TGI (NCI-H226 lung): > 100 µM
- TGI (NCI-H522 lung): > 100 µM
- TGI (CCRF-CEM leukemia): > 100 µM
- TGI (OVCAR-5 ovarian): > 85.4 µM
- TGI (NCI-H23 lung): > 79.3 µM
- TGI (786-0 renal): > 100 µM
- TGI (SN12C renal): > 100 µM
- TGI (A549 NSCLC): > 100 µM
- TGI (A498 renal): > 100 µM
- TGI (HOP-92 NSCLC): > 44.6 µM
- TGI (HCC-2998 colon): > 73 µM
- TGI (KM12 colon): > 100 µM
- TGI (OVCAR-4 ovarian): > 100 µM
- TGI (SK-OV-3 ovarian): > 100 µM
- TGI (RPMI-8226 leukemia): > 100 µM
- TGI (SF-295 CNS): > 100 µM
- TGI (SNB-19 CNS): > 100 µM
- TGI (SW-620 colon): > 100 µM
- TGI (SF-268 CNS): > 56.9 µM
- TGI (HOP-62 NSCLC): > 88 µM
- TGI (SNB-75 CNS): > 100 µM
- TGI (XF 498 CNS): > 100 µM
- TGI (TK-10 renal): > 100 µM
- TGI (OVCAR-3 ovarian): > 100 µM
- TGI (CAKI-1 renal): > 100 µM
- TGI (LOX IMVI melanoma): > 100 µM
- TGI (SF-539 CNS): > 74.5 µM
- TGI (SK-MEL-2 melanoma): > 100 µM
- TGI (HT29 colon): > 100 µM
- TGI (SK-MEL-28 melanoma): > 55.1 µM
- TGI (ACHN renal): > 100 µM
